Laboratory results published in patent US11944623B2, “Modulators of Kv3 channels to treat pain” (Autifony Therapeutics Limited, priority 2015, dated 2024).

Biological target: T1, human Kv3.1 channels (Homo sapiens, UniProt P48547)
T1 construct: expressed in transfected cells; host or cells: CHO/Gam/E1A-clone22 (CGE22) cells, transient BacMam transduction
T1 sequence (P48547 1-511): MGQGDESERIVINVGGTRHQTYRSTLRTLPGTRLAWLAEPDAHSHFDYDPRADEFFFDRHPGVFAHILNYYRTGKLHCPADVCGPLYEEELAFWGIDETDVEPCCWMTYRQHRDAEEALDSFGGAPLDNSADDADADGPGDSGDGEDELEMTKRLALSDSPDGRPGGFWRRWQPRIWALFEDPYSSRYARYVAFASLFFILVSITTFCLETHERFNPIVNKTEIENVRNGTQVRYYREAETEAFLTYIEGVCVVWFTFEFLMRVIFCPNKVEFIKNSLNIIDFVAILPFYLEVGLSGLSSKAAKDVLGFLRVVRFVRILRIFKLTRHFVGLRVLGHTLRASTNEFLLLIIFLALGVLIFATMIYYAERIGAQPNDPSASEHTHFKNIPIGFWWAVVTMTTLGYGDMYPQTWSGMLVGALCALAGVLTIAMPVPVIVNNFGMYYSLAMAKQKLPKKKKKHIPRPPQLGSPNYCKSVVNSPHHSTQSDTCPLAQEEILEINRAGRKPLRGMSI
Assay: hKv3.1 IonWorks Quattro whole-cell current potentiation assay
Format: cell-based
Conditions: potency as indicated by an EC50 value
From the text: The ability of the compounds of the invention to modulate the voltage-gated potassium channel subtypes Kv3.3/Kv3.2/Kv3.1 may be determined using the following assay. Analogous methods may be used to investigate the ability of the compounds of the invention to modulate other channel subtypes.
To assess compound effects on human Kv3.1 channels (hKv3.1), CHO/Gam/E1A-clone22 alias CGE22 cells were transduced using a hKv3.1 BacMam reagent. This cell line was designed to be an improved CHO-K1-based host for enhanced recombinant protein expression as compared to wild type CHO-K1. The cell line was generated following the transduction of CHO-K1 cells with a BacMam virus expressing the Adenovirus-Gam1 protein and selection with Geneticin-G418, to generate a stable cell line, CHO/Gam-A3. CHO/Gam-A3 cells were transfected with pCDNA3-E1A-Hygro, followed by hygromycin-B selection and FACS sorting to obtain single-cell clones. […]
Experiments were conducted at room temperature using IonWorks Quattro™ planar array electrophysiology technology (Molecular Devices Corp.) with PatchPlate™ PPC. […] Planar electrode hole resistances (Rp) were determined by applying a 10 mV voltage step across each well. […]
Test pulses protocol may be performed in the absence (pre-read) and presence (post-read) of the test compound. […]

- activity between modulation of Kv3.1 and Kv3.2 channels: comparable activity
Structure (SMILES): Cc1ccc(Oc2ccc(-n3c(C)n[nH]c3=O)cn2)c2c1OCC21CC1 [Compound 3, 5-methyl-4-{6-[(7-methylspiro[1-benzofuran-3,1′-cyclopropan]-4-yl)oxy]pyridin-3-yl}-2,4-dihydro-3H-1,2,4-triazol-3-one]
